Tested on: 229E human corona virus (hCoV)
Experiment: 229E live virus assay (CPE, ATPlite readout in MRC-5 cells)
Assay type: cell-based, hCoV-229E
Details: Human coronavirus 229E, MRC5, hCoV-229E live virus, MOI 0.05, ATPlite readout, run in duplicate

[2H]C([2H])([2H])N(C(=O)[C@@H](O)c1ccccc1)[C@@H](CC(C)(C)C)C(=O)N1C[C@]2(C[C@H]1C#N)C(=O)Nc1ccccc12 [Example 427]
EC50: < 100 nM

[2H]C([2H])([2H])N(C(=O)[C@H](O)c1ccccc1)[C@@H](CC(C)(C)C)C(=O)N1C[C@]2(C[C@H]1C#N)C(=O)Nc1ccccc12 [Example 428]
EC50: < 100 nM

CC(C)C[C@@H](C(=O)N1C[C@]2(C[C@H]1C#N)C(=O)Nc1ccccc12)N(C(=O)C(F)(F)F)C(C)C [Example 432]
EC50: > 1000 nM

CC(C)(C)C[C@H](NC(=O)Nc1ccccc1)C(=O)N1C[C@]2(C[C@H]1C#N)C(=O)Nc1ccccc12 [Example 435]
EC50: < 100 nM

CC(C)(C)C[C@H](NC(=O)Nc1ccc(F)cc1F)C(=O)N1C[C@]2(C[C@H]1C#N)C(=O)Nc1ccccc12 [Example 436]
EC50: < 100 nM

CC(C)(C)C[C@H](NC(=O)Nc1c(F)cccc1F)C(=O)N1C[C@]2(C[C@H]1C#N)C(=O)Nc1ccccc12 [Example 437]
EC50: < 100 nM

Cc1cccc(C)c1NC(=O)N[C@@H](CC(C)(C)C)C(=O)N1C[C@]2(C[C@H]1C#N)C(=O)Nc1ccccc12 [Example 438]
EC50: < 100 nM

CC(C)(C)C[C@H](NC(=O)Nc1ccc2ccccc2c1)C(=O)N1C[C@]2(C[C@H]1C#N)C(=O)Nc1ccccc12 [Example 439]
EC50: < 100 nM

CC(C)(C)C[C@H](NC(=O)NC1CCCCC1)C(=O)N1C[C@]2(C[C@H]1C#N)C(=O)Nc1ccccc12 [Example 440]
EC50: < 100 nM

CC(C)(C)C[C@H](NC(=O)Nc1ccc(F)cc1)C(=O)N1C[C@]2(C[C@H]1C#N)C(=O)Nc1ccccc12 [Example 441]
EC50: < 100 nM

CC(=O)C[C@@H](C(=O)N1C[C@]2(C[C@H]1C#N)C(=O)Nc1ccccc12)N(C)C(=O)c1cc2c(F)cc(F)cc2[nH]1 [Example 442]
EC50: < 100 nM

CN(C(=O)c1cc2c(F)cc(F)cc2[nH]1)[C@@H](CC(C)(C)O)C(=O)N1C[C@]2(C[C@H]1C#N)C(=O)Nc1ccccc12 [Example 443]
EC50: 100 to 1000 nM

CN(C(=O)c1cc2c(F)cc(F)c(F)c2[nH]1)[C@@H](CC(C)(C)O)C(=O)N1C[C@]2(C[C@H]1C#N)C(=O)Nc1ccccc12 [Example 444]
EC50: 100 to 1000 nM

CC(C)(F)C[C@H](NC(=O)COc1ccc(F)cc1F)C(=O)N1C[C@]2(C[C@H]1C#N)C(=O)Nc1ccc(Cl)cc12 [Example 445]
EC50: 100 to 1000 nM

CC(C)(F)C[C@H](NC(=O)c1cc2ccccn2n1)C(=O)N1C[C@]2(C[C@H]1C#N)C(=O)Nc1ccc(Cl)cc12 [Example 446]
EC50: 100 to 1000 nM

CC(C)(F)C[C@H](NC(=O)c1cccc(OC(F)(F)F)c1)C(=O)N1C[C@]2(C[C@H]1C#N)C(=O)Nc1ccc(Cl)cc12 [Example 447]
EC50: 100 to 1000 nM

CC(C)(C)C[C@H](NC(=O)c1cc2c(F)cc(F)cc2[nH]1)C(=O)N1C[C@]2(C[C@H]1C#N)C(=O)Nc1ccc(Cl)cc12 [Example 448]
EC50: < 100 nM

CC(C)(F)C[C@H](NC(=O)c1ccc(F)cc1F)C(=O)N1C[C@]2(C[C@H]1C#N)C(=O)Nc1ccc(Cl)cc12 [Example 449]
EC50: 100 to 1000 nM

CC(C)(C)C[C@H](NC(=O)c1cc2c(Cl)cccc2[nH]1)C(=O)N1C[C@]2(C[C@H]1C#N)C(=O)Nc1ccc(Cl)cc12 [Example 450]
EC50: < 100 nM

N#C[C@@H]1C[C@@]2(CN1C(=O)[C@H](Cc1ccccc1F)NC(=O)c1cc3c(F)cc(F)cc3[nH]1)C(=O)Nc1ccc(Cl)cc12 [Example 451]
EC50: 100 to 1000 nM

N#C[C@@H]1C[C@@]2(CN1C(=O)[C@H](Cc1ccc(F)cc1)NC(=O)c1cc3c(F)cc(F)cc3[nH]1)C(=O)Nc1ccc(Cl)cc12 [Example 452]
EC50: 100 to 1000 nM

[2H]C([2H])([2H])N(C(=O)c1cc2c(F)cc(F)cc2[nH]1)[C@@H](CC(C)(C)F)C(=O)N1C[C@]2(C[C@H]1C#N)C(=O)Nc1ccc(Cl)cc12 [Example 454, N-((S)-1-((3R,5'S)-5-chloro-5'-cyano-2-oxospiro[indoline-3,3'-pyrrolidin]-1'-yl)-4-fluoro-4-methyl-1-oxopentan-2-yl)-4,6-difluoro-N-(methyl-d3)-1H-indole-2-carboxamide]
EC50: < 100 nM

CN(C(=O)c1cc2c(F)cc(F)cc2[nH]1)[C@@H](CC(C)(C)F)C(=O)N1C[C@]2(C[C@H]1C#N)C(=O)Nc1ccc(Cl)cc12 [Example 455]
EC50: < 100 nM

[2H]C([2H])([2H])N(C(=O)c1cc2c(F)cc(F)cc2[nH]1)[C@@H](CC(C)(C)F)C(=O)N1C[C@]2(C[C@H]1C#N)C(=O)Nc1cc(C(F)(F)F)ccc12 [Example 472, N-((S)-1-((3R,5'S)-5'-cyano-2-oxo-6-(trifluoromethyl)spiro[indoline-3,3'-pyrrolidin]-1-yl)-4-fluoro-4-methyl-1-oxopentan-2-yl)-4,6-difluoro-N-(methyl-d3)-1H-indole-2-carboxamide]
EC50: < 100 nM

CN(C(=O)C1(c2ccncc2)CC1)[C@@H](CC(C)(C)F)C(=O)N1C[C@]2(C[C@H]1C#N)C(=O)Nc1ccc(Cl)cc12 [Example 473, N-((S)-1-((3R,5'S)-5-chloro-5'-cyano-2-oxospiro[indoline-3,3'-pyrrolidin]-1'-yl)-4-fluoro-4-methyl-1-oxopentan-2-yl)-N-methyl-1-(pyridin-4-yl)cyclopropane-1-carboxamide]
EC50: 100 to 1000 nM

[2H]C([2H])([2H])N(C(=O)Cc1ccncc1)[C@@H](CC(C)(C)F)C(=O)N1C[C@]2(C[C@H]1C#N)C(=O)Nc1ccc(Cl)cc12 [Example 474]
EC50: 100 to 1000 nM

[2H]C([2H])([2H])N(C(=O)C1(c2ccncc2)CC1)[C@@H](CC(C)(C)F)C(=O)N1C[C@]2(C[C@H]1C#N)C(=O)Nc1ccc(Cl)cc12 [Example 475]
EC50: 100 to 1000 nM

CN(C(=O)Cc1cccnc1)[C@@H](CC(C)(C)F)C(=O)N1C[C@]2(C[C@H]1C#N)C(=O)Nc1ccc(Cl)cc12 [Example 476]
EC50: 100 to 1000 nM

CN(C(=O)Cc1ccncc1)[C@@H](CC(C)(C)F)C(=O)N1C[C@]2(C[C@H]1C#N)C(=O)Nc1ccc(Cl)cc12 [Example 477]
EC50: 100 to 1000 nM

CN(C(=O)C1(c2ccccn2)CC1)[C@@H](CC(C)(C)F)C(=O)N1C[C@]2(C[C@H]1C#N)C(=O)Nc1ccc(Cl)cc12 [Example 478]
EC50: 100 to 1000 nM

CN(C(=O)C1(c2cccnc2)CC1)[C@@H](CC(C)(C)F)C(=O)N1C[C@]2(C[C@H]1C#N)C(=O)Nc1ccc(Cl)cc12 [Example 479]
EC50: 100 to 1000 nM

CN(C(=O)C(F)(F)c1ccncc1)[C@@H](CC(C)(C)F)C(=O)N1C[C@]2(C[C@H]1C#N)C(=O)Nc1ccc(Cl)cc12 [Example 480]
EC50: < 100 nM

CN(C(=O)C(F)(F)c1ccccn1)[C@@H](CC(C)(C)F)C(=O)N1C[C@]2(C[C@H]1C#N)C(=O)Nc1ccc(Cl)cc12 [Example 481]
EC50: 100 to 1000 nM

CN(C(=O)C(F)(F)c1cccnc1)[C@@H](CC(C)(C)F)C(=O)N1C[C@]2(C[C@H]1C#N)C(=O)Nc1ccc(Cl)cc12 [Example 482]
EC50: < 100 nM

CN(C(=O)Cc1ccccn1)[C@@H](CC(C)(C)F)C(=O)N1C[C@]2(C[C@H]1C#N)C(=O)Nc1ccc(Cl)cc12 [Example 483]
EC50: 100 to 1000 nM

CN(C(=O)Cc1cnccn1)[C@@H](CC(C)(C)F)C(=O)N1C[C@]2(C[C@H]1C#N)C(=O)Nc1ccc(Cl)cc12 [Example 484]
EC50: 100 to 1000 nM

CN(C(=O)Cc1cccc(C(F)(F)F)n1)[C@@H](CC(C)(C)F)C(=O)N1C[C@]2(C[C@H]1C#N)C(=O)Nc1ccc(Cl)cc12 [Example 485]
EC50: 100 to 1000 nM

Cc1cccc(C(F)(F)C(=O)N(C)[C@@H](CC(C)(C)F)C(=O)N2C[C@]3(C[C@H]2C#N)C(=O)Nc2ccc(Cl)cc23)n1 [Example 486]
EC50: 100 to 1000 nM

Cc1cccc(CC(=O)N(C)[C@@H](CC(C)(C)F)C(=O)N2C[C@]3(C[C@H]2C#N)C(=O)Nc2ccc(Cl)cc23)n1 [Example 487]
EC50: 100 to 1000 nM

N#C[C@@H]1C[C@@]2(CN1C(=O)[C@H](CC1CC1)NC(=O)OCc1c(F)cccc1F)C(=O)Nc1ccc(Cl)cc12 [Example 492, 2,6-difluorobenzyl ((S)-1-((3R,5'S)-5-chloro-5'-cyano-2-oxospiro[indoline-3,3'-pyrrolidin]-1'-yl)-3-cyclopropyl-1-oxopropan-2-yl)carbamate]
EC50: 100 to 1000 nM

N#C[C@@H]1C[C@@]2(CN1C(=O)[C@H](CC1CC1)NC(=O)OCc1ccc(F)cc1F)C(=O)Nc1ccc(Cl)cc12 [Example 493]
EC50: 100 to 1000 nM

C[C@@H](OC(=O)N[C@@H](CC(C)(C)C)C(=O)N1C[C@]2(C[C@H]1C#N)C(=O)Nc1ccc(Cl)cc12)c1ccc(F)cc1 [Example 495]
EC50: 100 to 1000 nM

CC(C)(C)C[C@H](NC(=O)OC(C)(C)c1ccc(F)cc1)C(=O)N1C[C@]2(C[C@H]1C#N)C(=O)Nc1ccc(Cl)cc12 [Example 496]
EC50: > 1000 nM

CC(C)C[C@@H](C(=O)N1C[C@]2(C[C@H]1C(=O)O)C(=O)Nc1ccc(Cl)cc12)N(C)C(=O)c1cc2c(F)cc(F)cc2[nH]1 [Example 497, (3R,5'S)-5-chloro-1'-(N-(4,6-difluoro-1H-indole-2-carbonyl)-N-methyl-L-leucyl)-2-oxospiro[indoline-3,3'-pyrrolidine]-5'-carboxylic acid]
EC50: > 1000 nM

C=C(C)c1ccc2c(c1)[C@@]1(C[C@@H](C#N)N(C(=O)[C@H](CC(C)C)N(C)C(=O)c3cc4c(F)cc(F)cc4[nH]3)C1)C(=O)N2 [Example 498, N-((S)-1-((3R,5'S)-5'-cyano-2-oxo-5-(prop-1-en-2-yl)spiro[indoline-3,3'-pyrrolidin]-1'-yl)-4-methyl-1-oxopentan-2-yl)-4,6-difluoro-N-methyl-1H-indole-2-carboxamide]
EC50: < 100 nM

CC(=O)c1ccc2c(c1)[C@@]1(C[C@@H](C#N)N(C(=O)[C@H](CC(C)C)N(C)C(=O)c3cc4c(F)cc(F)cc4[nH]3)C1)C(=O)N2 [Example 499, N-((S)-1-((3R,5'S)-5-acetyl-5'-cyano-2-oxospiro[indoline-3,3'-pyrrolidin]-1'-yl)-4-methyl-1-oxopentan-2-yl)-4,6-difluoro-N-methyl-1H-indole-2-carboxamide]
EC50: < 100 nM

CC(C)C[C@@H](C(=O)N1C[C@]2(C[C@H]1C#N)C(=O)Nc1ccc(S(C)(=O)=O)cc12)N(C)C(=O)c1cc2c(F)cc(F)cc2[nH]1 [Example 500, N-((S)-1-((3R,5'S)-5'-cyano-5-(methylsulfonyl)-2-oxospiro[indoline-3,3'-pyrrolidin]-1'-yl)-4-methyl-1-oxopentan-2-yl)-4,6-difluoro-N-methyl-1H-indole-2-carboxamide]
EC50: < 100 nM

Reference: patent publication EP4001279A1, “NOVEL SPIROPYRROLIDINE DERIVED ANTIVIRAL AGENTS” (Enanta Pharmaceuticals, Inc., priority 2020, dated 2022)
